Patent US8778921B2, “Ansamycin hydroquinone compositions” (Infinity Pharmaceuticals, Inc., priority 2008, dated 2014)
Structures can show the parent of a compound that is named as a salt. Blank lines part the entries; values can stand above or below the compound they belong to.

Assay: Stability at 40° C. and 75% relative humidity (percent purity by HPLC)
Format: physicochemical
Conditions: 40° C. and 75% RH; for Percent Purity of 17-BAG T = 0 Days / Percent Purity of 17-BAG T = 21 Days: Table 4; for Percent Purity of 17-AAG T = 0 Days / Percent Purity of 17-AAG T = 21 Days: Table 8; for Percent Purity of 17-FEAG T = 0 Days / Percent Purity of 17-FEAG T = 21 Days: Table 6
Method: As used herein, a “stable composition” refers a composition comprising a sulfur-containing compound and a baseline amount of the compound of formula (I) (e.g., such as percent purity as measured by HPLC) such that, after being subjected to standard stability conditions (e.g., 40° C. and 75% relative humidity) for a specified period of time (e.g., 1 day, 2 days, 3 days, 4 days, 5 days, 7 days, 14 days, 21 days, or 30 days), at least about 80% of the original amount of the compound of formula (I) remains in the composition (i.e., has not oxidized to a compound of formula (II) or degraded to other by-products). In certain embodiments, at least about 85%, at least about 90%, at least about 91%, at least about 92%, at least about 93%, at least about 94%, or at least about 95% of the original amount of the hydroquinone compound of formula (I) remains in the composition for a specified period of time (e.g., 1 day, 2 days, 3 days, 4 days, 5 days, 7 days, 14 days, 21 days, or 30 days).
The stability data for 17-AG-HQ of Example 2 when kept at 40° C. and 75% relative humidity (RH) is depicted in FIG. 8 (see Table 2 for tabulated stability data). It was observed that 17-AG-HQ of Example 2 completely oxidizes to its quinone form in two weeks at 40° C. and […] as determined by HPLC.

[1] = Table 14, formulations of 17-AG-HQ of Example 3
[2] = Table 15, NaHSO3/mineral oil formulation of 17-AG-HQ of Example 3

Percent Purity of 17-BAG T = 0 Days (T = 0 Days): 98%
Percent Purity of 17-BAG T = 21 Days (T = 21 Days): 11%
Percent Purity of 17-BAG-HQ T = 0 Days (Table 17, Example 8B Formulations, T = 0 Days): 98%
Percent Purity of 17-BAG-HQ T = 21 Days (Table 17, Example 8B Formulations, T = 21 Days): 11%
SMILES: CO[C@H]1/C=C\C=C(/C)C(=O)Nc2cc(O)c(NCc3ccccc3)c(c2O)C[C@@H](C)C[C@H](OC)[C@H](O)[C@@H](C)/C=C(\C)[C@@H]1OC(N)=O [17-BAG-HQ of Example 8B, 17-benzylamino-geldanamycin hydroquinone]

SMILES: CO[C@H]1/C=C\C=C(/C)C(=O)Nc2cc(O)c(N)c(c2O)C[C@@H](C)C[C@H](OC)[C@H](O)[C@@H](C)/C=C(\C)[C@@H]1OC(N)=O [17-AG-HQ of Example 6A, 17-amino-geldanamycin hydroquinone]
stability over a period of time compared to 17-AG-HQ of Example 6B: greater stability
Percent Purity of 17-AG-HQ T = 0 Days (Table 2, T = 0 Days): 97%
Percent Purity of 17-AG-HQ T = 21 Days (Table 2, T = 21 Days): 83%

SMILES: C=CCNc1c(O)cc2c(O)c1C[C@@H](C)C[C@H](OC)[C@H](O)[C@@H](C)/C=C(\C)[C@H](OC(N)=O)[C@@H](OC)/C=C\C=C(/C)C(=O)N2 [17-AAG-HQ of Example 11B, 17-allylamino-geldanamycin hydroquinone]
Percent Purity of 17-AAG T = 0 Days (T = 0 Days): 97%
Percent Purity of 17-AAG T = 21 Days (T = 21 Days): 2%
Percent Purity of 17-AAG-HQ T = 0 Days (Table 19, Example 11B Formulations, T = 0 Days): 97%
Percent Purity of 17-AAG-HQ T = 21 Days (Table 19, Example 11B Formulations, T = 21 Days): 2%

SMILES: CO[C@H]1/C=C\C=C(/C)C(=O)Nc2cc(O)c(N)c(c2O)C[C@@H](C)C[C@H](OC)[C@H](O)[C@@H](C)/C=C(\C)[C@@H]1OC(N)=O [17-AG-HQ of Example 5, 17-amino-geldanamycin hydroquinone]
stability over a period of time compared to Examples 2, 3 and 4: greatest stability
Percent Purity of 17-AG-HQ T = 0 Days (Table 2, T = 0 Days): 99%
Percent Purity of 17-AG-HQ T = 30 Days (Table 2): 98%

SMILES: C=CCNc1c(O)cc2c(O)c1C[C@@H](C)C[C@H](OC)[C@H](O)[C@@H](C)/C=C(\C)[C@H](OC(N)=O)[C@@H](OC)/C=C\C=C(/C)C(=O)N2 [17-AAG-HQ of Example 11A, 17-allylamino-geldanamycin hydroquinone]
stability over a period of time compared to 17-AAG-HQ of Example 11B: greater stability
Percent Purity of 17-AAG T = 0 Days (T = 0 Days): 99%
Percent Purity of 17-AAG T = 21 Days (T = 21 Days): 97%

stability over a period of time compared to 17-BAG-HQ of Example 8B: greater stability
Percent Purity of 17-BAG T = 0 Days (T = 0 Days): 98%
Percent Purity of 17-BAG T = 21 Days (T = 21 Days): 96%
SMILES: CO[C@H]1/C=C\C=C(/C)C(=O)Nc2cc(O)c(NCc3ccccc3)c(c2O)C[C@@H](C)C[C@H](OC)[C@H](O)[C@@H](C)/C=C(\C)[C@@H]1OC(N)=O [17-BAG-HQ of Example 8A, 17-benzylamino-geldanamycin hydroquinone]

SMILES: CO[C@H]1/C=C\C=C(/C)C(=O)Nc2cc(O)c(N)c(c2O)C[C@@H](C)C[C@H](OC)[C@H](O)[C@@H](C)/C=C(\C)[C@@H]1OC(N)=O [17-AG-HQ of Example 6B, 17-amino-geldanamycin hydroquinone]
time in which the hydroquinone completely oxidizes to its quinone form (determined by HPLC): 3 weeks
Percent Purity of 17-AG-HQ T = 0 Days (Table 2, T = 0 Days): 97%
Percent Purity of 17-AG-HQ T = 21 Days (Table 2, T = 21 Days): 13%
Percent Purity of 17-AG-HQ T = 0 Days (Table 16, Example 6B Formulations, T = 0 Days): 97%
Percent Purity of 17-AG-HQ T = 21 Days (Table 16, Example 6B Formulations, T = 21 Days): 13%

SMILES: CO[C@H]1/C=C\C=C(/C)C(=O)Nc2cc(O)c(N)c(c2O)C[C@@H](C)C[C@H](OC)[C@H](O)[C@@H](C)/C=C(\C)[C@@H]1OC(N)=O [17-AG-HQ of Example 3, 17-amino-geldanamycin hydroquinone]
stability over a period of time compared to 17-AG-HQ of Example 2: greater stability
Percent Purity of 17-AG-HQ T = 0 Days (Table 2, T = 0 Days): 97%
Percent Purity of 17-AG-HQ T = 2 Days (Table 2, T = 2 Days): 93%
Percent Purity of 17-AG-HQ T = 5 Days (Table 2): 91%
Percent Purity of 17-AG-HQ T = 14 Days (Table 2): 87%
Percent Purity of 17-AG-HQ T = 21 Days (Table 2, T = 21 Days): 81%
Percent Purity of 17-AG-HQ T = 30 Days (Table 2): 79%
Percent Purity of 17-AG-HQ T = 0 Days (Table 14, formulations of 17-AG-HQ of Example 3, T = 0 Days): 97%
Percent Purity of 17-AG-HQ T = 5 Days [1]: 91%
Percent Purity of 17-AG-HQ T = 14 Days [1]: 87%
Percent Purity of 17-AG-HQ T = 21 Days (Table 14, formulations of 17-AG-HQ of Example 3, T = 21 Days): 81%
Percent Purity of 17-AG-HQ T = 0 Days (Table 15, NaHSO3/mineral oil formulation of 17-AG-HQ of Example 3, T = 0 Days): 97%
Percent Purity of 17-AG-HQ T = 5 Days [2]: 91%
Percent Purity of 17-AG-HQ T = 14 Days [2]: 87%
Percent Purity of 17-AG-HQ T = 21 Days (Table 15, NaHSO3/mineral oil formulation of 17-AG-HQ of Example 3, T = 21 Days): 81%

SMILES: CO[C@H]1/C=C\C=C(/C)C(=O)Nc2cc(O)c(N)c(c2O)C[C@@H](C)C[C@H](OC)[C@H](O)[C@@H](C)/C=C(\C)[C@@H]1OC(N)=O [17-AG-HQ of Example 4, 17-amino-geldanamycin hydroquinone]
stability over a period of time compared to Examples 2 and 3: greater stability
Percent Purity of 17-AG-HQ T = 0 Days (Table 2, T = 0 Days): 99%
Percent Purity of 17-AG-HQ T = 30 Days (Table 2): 97%

stability over a period of time compared to 17-FEAG-HQ of Example 10B: greater stability
Percent Purity of 17-FEAG T = 0 Days (T = 0 Days): 99%
Percent Purity of 17-FEAG T = 21 Days (T = 21 Days): 96%
SMILES: CO[C@H]1/C=C\C=C(/C)C(=O)Nc2cc(O)c(NCCF)c(c2O)C[C@@H](C)C[C@H](OC)[C@H](O)[C@@H](C)/C=C(\C)[C@@H]1OC(N)=O [17-FEAG-HQ of Example 10A, 17-(2-fluoroethylamino)-geldanamycin hydroquinone]

Percent Purity of 17-FEAG T = 0 Days (T = 0 Days): 97%
Percent Purity of 17-FEAG T = 21 Days (T = 21 Days): 0%
Percent Purity of 17-FEAG-HQ T = 0 Days (Table 18, Example 10B Formulations, T = 0 Days): 97%
Percent Purity of 17-FEAG-HQ T = 21 Days (Table 18, Example 10B Formulations, T = 21 Days): 0%
SMILES: CO[C@H]1/C=C\C=C(/C)C(=O)Nc2cc(O)c(NCCF)c(c2O)C[C@@H](C)C[C@H](OC)[C@H](O)[C@@H](C)/C=C(\C)[C@@H]1OC(N)=O [17-FEAG-HQ of Example 10B, 17-(2-fluoroethylamino)-geldanamycin hydroquinone]

SMILES: CO[C@H]1/C=C\C=C(/C)C(=O)Nc2cc(O)c(N)c(c2O)C[C@@H](C)C[C@H](OC)[C@H](O)[C@@H](C)/C=C(\C)[C@@H]1OC(N)=O [17-AG-HQ-HCl salt, 17-amino geldanamycin hydroquinone HCl Salt]
Percent Purity of 17-AG-HQ T = 0 Days (Table 2, T = 0 Days): 99%
Percent Purity of 17-AG-HQ T = 14 Days (Table 2): 88%
Percent Purity of 17-AG-HQ T = 30 Days (Table 2): 74%
